# Measurements reported in US9809552B2, “Piperazine derivatives as FASN inhibitors” (Merck Patent GmbH, priority 2013, dated 2017).
# Molecular target: T1, human recombinant full-length fatty acid synthase (FASN) (Homo sapiens, UniProt P49327)
# T1 construct: human recombinant full-length fatty acid synthase (produced in-house in SF9 cells); made in house; host or cells: SF9 insect cells
# Assay: Biochemical activity testing of human fatty acid synthase FASN (NADPH fluorescence intensity enzyme assay)
# Conditions: 15 min pre-incubation, 30 min reaction at room temperature
# From the text: Biochemical activity testing of human fatty acid synthase FASN
# Fatty acid synthase FASN is a multifunctional enzyme with seven catalytic activities thereby synthesising long chain fatty acids especially palmitoyl-CoA in the presence of co-factor NADPH starting from the substrates acetyl-CoA and malonyl-CoA. The reductive synthesis is realized by the oxidation of NADPH to NADP. Since NADPH has a high fluorescence intensity quantum yield compared to NADP with excitation at 340 nm and emission at 460 nm, the reaction can be monitored via the decrease in fluorescence intensity. The biochemical FASN activity testing was performed as 384 well two-time-point kinetic fluorescence intensity assay format in Greiner low volume medium binding 384-well black microtiter plates in a total assay volume of 8 μl and was used for high throughput screen. In each well 3 μl 40 nM human recombinant full-length fatty acid synthase (produced in-house in SF9 cells) were dispensed in the following assay buffer: 50 mM potassium phosphate buffer pH 7.0, 0.005% (w/v) BSA, 2 mM Glutathione, 0.02% Tween-20. Then 2 μl of 200 μM NADPH in assay buffer were added, followed by the addition of the test compounds in 10 dilution concentrations starting with 30 μM (final concentration) to get a final DMSO content of 1% (v/v). The mixture was incubated for at least 15 min at room temperature. After the pre-incubation the enzymatic reaction was started by the addition of 2 μl substrate solution (80 μM acetyl-CoA, 240 μM malonyl-CoA). A first fluorescence intensity measurement (time point one) was performed with an Envision multimode reader (Perkin Elmer LAS Germany GmbH) at excitation wavelength 340 nm (lamp mode) and emission wavelength 460 nm. The reaction was incubated for 30 minutes at room temperature. After this the fluorescence intensity was measured again in the Envision using the same parameters as described above (second time point measurement). The data were analysed by subtracting the first time point measurement value from the second time point measurement value (after the enzymatic reaction). The differences of the emission signals were determined. These reflect directly the conversion rate of NADPH. The full value used was the inhibitor-free reaction. A pharmacological zero value was used like GSK837149A (Sigma-Aldrich) in a final concentration of 5-10 μM. The inhibitory values (IC50) were determined using either the program Symyx Assay Explorer® or Condosseo® from GeneData.
# T1 sequence (P49327 whole entry): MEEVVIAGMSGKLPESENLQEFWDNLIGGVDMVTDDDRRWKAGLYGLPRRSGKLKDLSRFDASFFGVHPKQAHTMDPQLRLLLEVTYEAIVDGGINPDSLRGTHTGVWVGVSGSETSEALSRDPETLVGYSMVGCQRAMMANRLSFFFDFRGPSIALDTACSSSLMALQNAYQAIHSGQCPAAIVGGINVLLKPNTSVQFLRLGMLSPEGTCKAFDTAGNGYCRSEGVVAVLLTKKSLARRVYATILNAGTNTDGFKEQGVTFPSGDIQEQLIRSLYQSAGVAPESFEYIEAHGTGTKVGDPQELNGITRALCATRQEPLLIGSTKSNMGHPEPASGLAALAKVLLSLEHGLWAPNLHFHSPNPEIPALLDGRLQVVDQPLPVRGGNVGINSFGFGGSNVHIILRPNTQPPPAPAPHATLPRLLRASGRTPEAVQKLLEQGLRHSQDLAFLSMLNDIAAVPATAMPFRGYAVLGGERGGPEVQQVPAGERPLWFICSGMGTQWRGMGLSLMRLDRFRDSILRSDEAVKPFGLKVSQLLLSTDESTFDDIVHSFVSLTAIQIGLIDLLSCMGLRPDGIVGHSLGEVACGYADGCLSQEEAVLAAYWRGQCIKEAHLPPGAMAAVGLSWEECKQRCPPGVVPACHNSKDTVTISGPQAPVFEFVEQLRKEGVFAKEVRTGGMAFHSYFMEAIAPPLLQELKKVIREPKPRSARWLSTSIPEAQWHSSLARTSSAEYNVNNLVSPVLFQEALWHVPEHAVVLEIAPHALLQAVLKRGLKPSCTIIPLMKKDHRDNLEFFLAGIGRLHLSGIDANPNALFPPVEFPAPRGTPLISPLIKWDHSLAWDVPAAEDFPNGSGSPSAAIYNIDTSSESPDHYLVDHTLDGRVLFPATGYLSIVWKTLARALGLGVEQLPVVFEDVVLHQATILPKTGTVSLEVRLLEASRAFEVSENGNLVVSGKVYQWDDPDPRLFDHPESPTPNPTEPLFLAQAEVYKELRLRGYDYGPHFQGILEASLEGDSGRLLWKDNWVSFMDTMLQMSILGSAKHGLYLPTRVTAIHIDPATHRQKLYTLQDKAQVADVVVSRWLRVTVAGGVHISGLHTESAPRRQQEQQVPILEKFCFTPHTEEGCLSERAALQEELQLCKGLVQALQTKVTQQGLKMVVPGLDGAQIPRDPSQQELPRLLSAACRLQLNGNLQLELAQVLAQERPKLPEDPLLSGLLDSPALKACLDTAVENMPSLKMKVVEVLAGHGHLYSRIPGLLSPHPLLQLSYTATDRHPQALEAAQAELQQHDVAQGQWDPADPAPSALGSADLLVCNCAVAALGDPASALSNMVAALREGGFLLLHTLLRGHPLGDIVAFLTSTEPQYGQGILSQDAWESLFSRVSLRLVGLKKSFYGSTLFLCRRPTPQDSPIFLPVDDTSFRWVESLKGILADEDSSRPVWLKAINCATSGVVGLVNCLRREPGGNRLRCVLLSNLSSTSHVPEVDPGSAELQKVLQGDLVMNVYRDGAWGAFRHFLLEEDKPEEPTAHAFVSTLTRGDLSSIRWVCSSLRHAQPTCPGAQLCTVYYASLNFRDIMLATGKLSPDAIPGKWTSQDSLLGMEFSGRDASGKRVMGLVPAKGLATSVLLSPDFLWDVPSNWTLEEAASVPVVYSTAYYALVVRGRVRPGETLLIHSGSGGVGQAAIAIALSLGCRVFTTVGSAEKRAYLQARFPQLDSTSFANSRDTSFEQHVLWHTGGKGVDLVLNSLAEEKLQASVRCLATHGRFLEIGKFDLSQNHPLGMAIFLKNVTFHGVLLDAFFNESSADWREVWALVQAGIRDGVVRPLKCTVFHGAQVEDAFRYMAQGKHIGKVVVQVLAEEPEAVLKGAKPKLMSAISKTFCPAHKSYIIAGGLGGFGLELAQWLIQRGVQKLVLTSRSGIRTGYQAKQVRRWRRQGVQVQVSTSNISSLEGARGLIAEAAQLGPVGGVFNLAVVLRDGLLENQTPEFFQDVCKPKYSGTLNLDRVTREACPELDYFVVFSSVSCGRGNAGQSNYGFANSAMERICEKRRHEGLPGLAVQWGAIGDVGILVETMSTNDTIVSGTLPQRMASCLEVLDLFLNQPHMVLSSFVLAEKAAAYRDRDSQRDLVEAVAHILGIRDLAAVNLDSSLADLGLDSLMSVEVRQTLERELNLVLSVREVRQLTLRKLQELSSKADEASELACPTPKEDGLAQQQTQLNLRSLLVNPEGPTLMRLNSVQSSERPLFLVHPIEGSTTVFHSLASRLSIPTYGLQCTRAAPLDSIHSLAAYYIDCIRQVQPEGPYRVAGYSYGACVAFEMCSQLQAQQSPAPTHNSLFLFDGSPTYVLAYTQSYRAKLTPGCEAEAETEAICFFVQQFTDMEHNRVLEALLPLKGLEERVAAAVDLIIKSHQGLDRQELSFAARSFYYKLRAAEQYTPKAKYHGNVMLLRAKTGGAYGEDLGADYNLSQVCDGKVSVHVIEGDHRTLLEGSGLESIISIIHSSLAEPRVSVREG
row,SMILES,IC50 [nM]
1,"CC(=O)N1CCN(C(=O)c2ccc(-c3ccc4cnccc4c3)cc2)CC1 [Compound A2, 1-[4-(4-isoquinolin-6-yl-benzoyl)-piperazin-1-yl]ethanone]",300 to 3000
2,"CCCC(=O)N1CCN(C(=O)c2ccc(-c3ccc4cnc(OC)cc4c3)cc2)CC1 [Compound A4, 1-{4-[4-(3-methoxy-isoquinolin-6-yl)-benzoyl]-piperazin-1-yl}-butan-1-one]",300 to 3000
3,"CCCC(=O)N1CCN(C(=O)c2ccc(-c3ccc4cnccc4c3)cc2)CC1 [Compound A6, 1-[4-(4-isoquinolin-6-yl-benzoyl)-piperazin-1-yl]-butan-1-one]",< 300
4,"CCC(=O)N1CCN(C(=O)c2ccc(-c3ccc4c[n+]([O-])ccc4c3)cc2)CC1 [Compound A7, 1-{4-[4-(2-oxy-isoquinolin-6-yl)-benzoyl]-piperazin-1-yl}-propan-1-one]",< 300

# The next lines start with the values.
row,IC50 [nM],SMILES
1,< 300,"CCC(=O)N1CCN(C(=O)c2ccc(-c3ccc4cnccc4c3)cc2)CC1 [Compound A1, 1-[4-(4-isoquinolin-6-yl-benzoyl)-piperazin-1-yl]-propan-1-one]"
2,< 300,"O=C(c1ccc(-c2ccc3cnccc3c2)cc1)N1CCN(C(=O)C2CC2)CC1 [Compound A3, (4-cyclopropanecarbonyl-piperazin-1-yl)-(4-isoquinolin-6-yl-phenyl)-methanone]"
3,< 300,"CCCCC(=O)N1CCN(C(=O)c2ccc(-c3ccc4cnccc4c3)cc2)CC1 [Compound A5, 1-[4-(4-isoquinolin-6-yl-benzoyl)-piperazin-1-yl]-pentan-1-one]"
